Reference: PMC3462190, “A Peptidic Unconjugated GRP78/BiP Ligand Modulates the Unfolded Protein Response and Induces Prostate Cancer Cell Death” (PLoS ONE, 2012)
Where no end group is shown, it is not given here.

What was measured:
[1] = system: DU145 cells; test: Clonogenic assay; format: cell-based; details: 19-mer expressing vector vs vector control; at least three experiments
Procedure: (§1) Figure 6 Selectivity of action of the Bag-1 peptide. A Amino acid sequence of the 19mer peptide and its deletion mutants. B GST pull-down assay performed incubating 400 µg of 22Rv.1 cell lysate and 25 µg of GST-fused deletion mutants of the 19mer peptide. After the pull-down experiment, Western blots were carried out with anti-GRP78/BiP and GST antibodies. C. Fluorescence polarization (FP) assays with a 10 nM FITC-labeled 7-mer Bag-1 peptide and dilutions of the GST-fused substrate binding domain of GRP78 in 60 µl of Tris-GSH buffer (50 mM Tris, 10 mM reduced glutathione and 0.1% BSA, pH 8.0). Triplicate samples were measured after 5 h of incubation at room temperature with an Infinite F-200 reader (Tecan) with excitation at 490 nm and emission at 535 nm. Binding constants were determined from three independent experiments using non-linear regression in Sigma Plot 10.0. D. Competition assays with a complex of 10 nM of FITC-labeled Bag-1 7-mer peptide and 0.75 mg/ml GST-fused GRP78 substrate binding domain was measured against a dilution series from 100 µM to 0.1 nM of wild-type Bag-1 7-mer peptide (filled line) or triple mutant peptide (dotted line) in 40 µl of Tris-GSH buffer. FITC-peptide and the FITC-peptide-protein complex were used as controls. Fluorescence polarization was determined as described above and IC50 values were determined in Sigma Plot. E. Clonogenic assay in 22Rv.1 cells with pcDNA3 based vectors coding for the N-terminal Bag-1 peptide (positive control), the 19mer and the 19mer mutant fragments as well as the empty expression vector (negative control). Cells were transfected with the indicated constructs and selected in medium containing neomycin. The colonies were stained and quantified. Shown as bar chats are the mean ± SEM of at least three independent experiments with three different plasmid preparations. (*p<0.05). F. In vivo luciferase refolding assay was performed in HEK-293 cells transfected at 70% confluency with 2 µg β-actin-fire fly luciferase construct, 3 µg pcDNA3 empty vector as control or pCMV6-GRP78, 6 µg pcDNA3.1-HA-19-mer or 19-mer mutant peptide and 0.5 µg Renilla luciferase construct to determine the transfection efficiency. Shown as bar charts is the mean of at least three different experiments ± SEM (*p<0.05). G. Clonogenic assay with the indicated malignant (LNCaP, DU145, PC3) and benign (BPH1, PNT2, RWPE1) prostate cell lines transfected with the vector control (black bars) and a vector expressing the 19-mer peptide (white bars). Shown are the mean ± SD of at least three different experiments performed with three different plasmid preparations (*p<0.05). H. Western blot analysis of cell lysates derived from the prostate cancer cells used for the colony forming assay with specific antibodies against GRP78 and β-actin.

[2] = system: LNCaP cells; test: Clonogenic assay; format: cell-based; details: 19-mer expressing vector vs vector control; at least three experiments
Procedure: as §1

[3] = system: PNT-2 cells; test: Clonogenic assay; format: cell-based; details: benign prostate cells, 19-mer vector vs control; at least three experiments
Procedure: as §1

[4] = system: PC3 cells; test: Clonogenic assay; format: cell-based; details: 19-mer expressing vector vs vector control; at least three experiments
Procedure: as §1

[5] = system: RWPE-1 cells; test: Clonogenic assay; format: cell-based; details: benign prostate cells, 19-mer vector vs control; at least three experiments
Procedure: as §1

[6] = system: BPH-1 cells; test: Clonogenic assay; format: cell-based, Human; details: benign prostate cells, 19-mer vector vs control; at least three experiments
Procedure: Figure 6 Selectivity of action of the Bag-1 peptide. A Amino acid sequence of the 19mer peptide and its deletion mutants. B GST pull-down assay performed incubating 400 µg of 22Rv.1 cell lysate and 25 µg of GST-fused deletion mutants of the 19mer peptide. After the pull-down experiment, Western blots were carried out with anti-GRP78/BiP and GST antibodies. C. Fluorescence polarization (FP) assays with a 10 nM FITC-labeled 7-mer Bag-1 peptide and dilutions of the GST-fused substrate binding domain of GRP78 in 60 µl of Tris-GSH buffer (50 mM Tris, 10 mM reduced glutathione and 0.1% BSA, pH 8.0). Triplicate samples were measured after 5 h of incubation at room temperature with an Infinite F-200 reader (Tecan) with excitation at 490 nm and emission at 535 nm. Binding constants were determined from three independent experiments using non-linear regression in Sigma Plot 10.0. D. Competition assays with a complex of 10 nM of FITC-labeled Bag-1 7-mer peptide and 0.75 mg/ml GST-fused GRP78 substrate binding domain was measured against a dilution series from 100 µM to 0.1 nM of wild-type Bag-1 7-mer peptide (filled line) or triple mutant peptide (dotted line) in 40 µl of Tris-GSH buffer. […] Fluorescence polarization was determined as described above and IC50 values were determined in Sigma Plot. […] The colonies were stained and quantified. […]

[7] = system: 22Rv.1 cells; test: CellTiter-Blue proliferation/viability assay; format: cell-based; details: 22Rv.1 clones P25, P29 and P42 vs vector clones V18, V19 and V33; no ER stress; 2 days; at least four independent experiments, p<0.05
Procedure: CellTiter-Blue® cell viability assay kit (Promega) was used for the determination of cell viability. Briefly 22Rv.1 cells stably overexpressing the Bag-1 peptide were seeded into two 96 well plate (4500 cells/well) and the measurements were performed in triplicate. One plate was analyzed at day 0 and the other plate, 2 days later. Three hours after seeding, 20 µl of dye were added to each well containing 100 µl of culture medium and incubated for 4 h at 37°C. Fluorescence was measured by the plate-reading fluorometer FluoStar Optima (2001, BMG Labtechnology, software version 1.10–0) and presented as the ratio of the value at the excitation wavelength (560 nm) over the emission wavelenght (590 nm). Cell proliferation was determined from the difference between the fluorescence intensity at the final time point and the value obtained at the day of seeding of the cells (day 0).
Figure 4 The Bag-1 peptide inhibits prostate cancer cell growth in vivo. A. Stable clones of 22Rv.1 cells show reduced cell viability in vitro. […] Tumor size was measured once per week using a caliper and expressed as tumor volume in mm^3. […] Nuclei are stained blue-purple with hematoxylin while apoptotic cells detected with the TUNEL assay are stained brown. […]

Row | Molecule | DU145 growth in clonogenic assay [1] | LNCaP growth in clonogenic assay [2] | PNT-2 growth in clonogenic assay [3] | PC3 growth in clonogenic assay [4] | RWPE-1 growth in clonogenic assay [5] | BPH-1 growth in clonogenic assay [6] | proliferation [7]
1 | 19-mer: Bag-1L 202–220 (TPLSALGIQDGCRVMLIGK; not fully specified) | inhibited growth | inhibited growth | not growth inhibited | inhibited growth | not growth inhibited | not growth inhibited | –
2 | Bag-1 peptide: internal sequence of 68 amino acids of Bag-1 (Bag1-L 202–269), HA-tagged, expressed from pcDNA3 (also: HA tag, end not given here) TPLSALGIQDGCRVMLIGKKNSPQEEVELKKLKHLEKSVEKIADQLEELNKELTGIQQGFLPKDLQAE | – | – | – | – | – | – | significantly reduced proliferation
